Reference: patent US20170181431A1, “HERBICIDAL COMPOSITIONS CONTAINING 4-AMINO-3-CHLORO-6-(4-CHLORO-2-FLUORO-3-METHOXYPHENYL) PYRIDINE-2-CARBOXYLIC ACID OR A DERIVATIVE THEREOF AND A CELL MEMBRANE DISRUPTOR HERBICIDE OR A DERIVATIVE THEREOF” (Dow AgroSciences LLC, priority 2015, published 2017)

Test system: Conyza species (fleabane, ERISS)
Experiment: Field trial of post-emergence (foliar) herbicidal activity, percent weed control visually rated
Type: in vivo
Conditions: Cmpd 1 alone 5 g ae/ha, Table 2
Text: Treatments consisted of the methyl ester of 4-amino-3-chloro-6-(4-chloro-2-fluoro-3-methoxyphenyl)pyridine-2-carboxylic acid (Cmpd 1) tankmixed with saflufenacil or paraquat. The form of compound of formula (I) was applied on an acid equivalent basis, and saflufenacil and paraquat were applied on an active ingredient basis. Saflufenacil was applied as a commercial formulation containing 700 grams per kilogram (g/kg). Paraquat was applied as a commercial formulation containing 200 g/L.
Field trials were conducted under standard field conditions. Plot sizes varied from 2 meters (m) wide by 5 m long. Treatments were applied with small plot backpack sprayers, using pressurized carbon dioxide (CO2) as propellant. Pressure varied from 40-45 pounds per square inch (PSI), with spray tips typically of a Flat Fan type applying water diluent at 100 liters per hectare (L/ha). Boom size was 2 m in width. Weed sizes varied, but all treatments were applied as post-emergence treatments to weeds from 2 leaf to 2 tiller growth stages varying from 2-15 inches in height. No additional adjuvant was mixed with the treatments applied in the field.
Results in Tables 1 to 2 are field trial results for foliar applied compositions. The values reported are percent (%) control visually rated. The predicted percent (%) weed contol was determined using Colby's equation.
The following abbreviations are used in Tables 1 to 2: ERISS=Conyza species (fleabane, ERISS) g ae/ha=grams acid equivalent per hectare g ai/ha=grams active ingredient per hectare Mean % weed control=observed value of percent (%) control rated visually Predicted mean % weed control=expected value of percent (%) control as calculated by Colby's equation Cmpd 1=methyl 4-amino-3-chloro-6-(4-chloro-2-fluoro-3-methoxyphenyl)pyridine-2-carboxylate, halauxifen-methyl, or ARYLEX® DAA=days after application

Structure (SMILES): COC(=O)c1nc(-c2ccc(Cl)c(OC)c2F)cc(N)c1Cl [Cmpd 1, methyl 4-amino-3-chloro-6-(4-chloro-2-fluoro-3-methoxyphenyl)pyridine-2-carboxylate]
- Cmpd 1 Mean % weed control (17DAA): 33.75%
- Cmpd 1 Mean % weed control (28DAA): 33.75%
- Cmpd 1 Mean % weed control (43DAA): 40%
